EP4740948A1 (Dong Wha Pharm. Co., Ltd., priority 2023, dated 2025)

Tests used:
[1] = target: EZH1 (Homo sapiens, UniProt Q92800); assay: AlphaLISA enzyme activity inhibition, EZH1; format: biochemical
Outline: (§1)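 EZH1 or EZH2 was mixed with compound at 5 nM or 10 nM final in 20 mM Tris pH 8.0, 0.1% BSA, 0.5 mM DTT, then histone H3 peptide and SAM were added. After 2 h reaction, AlphaLISA acceptor and donor beads detected methylation; inhibition rate was calculated against DMSO control.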

[2] = tested on: MKN-45 cells; assay: Cancer cell proliferation inhibition (Cell Counting Kit-8), gastric cancer cell line; format: cell-based; settings: 1000 nM, cultured seven to 11 days; for inhibition at 1 µM: Homo sapiens, MKN-45, 264 h, read-out: % inhibition rate MKN -45
Outline: (§2)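 Cells grown in RPMI1640, McCoy's 5a, L-15 or DMEM with 10% FBS, seeded at 100 to 1,000 cells/well and treated with test substance at 1000 nM for 7 to 11 days. Viability read by CCK-8; % inhibition = {1−(test/control)} × 100.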

[3] = tested on: SW-13 cells; assay: Cancer cell proliferation inhibition (Cell Counting Kit-8), adrenal cancer cell line; format: cell-based; settings: 1000 nM, cultured seven to 11 days; for inhibition at 1 µM: Homo sapiens, SW13, 264 h, read-out: % inhibition rate SW-13
Outline: (§3)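 Cells grown in RPMI1640, McCoy's 5a, L-15 or DMEM with 10% fetal bovine serum, seeded at 100 to 1,000 cells per well, then exposed to test compound at 1000 nM for seven to 11 days. Viability read by CCK-8; % inhibition = {1−(test/control)} × 100.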

[4] = tested on: MIA-PaCa-2 cells; assay: Cancer cell proliferation inhibition (Cell Counting Kit-8), pancreatic cancer cell line; format: cell-based; settings: 1000 nM, cultured seven to 11 days; for inhibition at 1 µM: Homo sapiens, MIA PaCa-2, 264 h, read-out: % inhibition rate MIA-Paca2
Outline: as §3

[5] = tested on: G401 cells; assay: Cancer cell proliferation inhibition (Cell Counting Kit-8), rhabdoid tumor cell line; format: cell-based; settings: 1000 nM, cultured seven to 11 days; for inhibition at 1 µM: Homo sapiens, G-401, 264 h, read-out: % inhibition rate G401; for % inhibition rate G401: 1 µM
Outline: as §2

[6] = tested on: NCI-H1299 cells; assay: Cancer cell proliferation inhibition (Cell Counting Kit-8), lung cancer cell line; format: cell-based; settings: 1000 nM, cultured seven to 11 days; for inhibition at 1 µM: Homo sapiens, NCI-H1299, 264 h, read-out: % inhibition rate NCI-H129 9
Outline: as §3

[7] = tested on: Lovo cells; assay: Cancer cell proliferation inhibition (Cell Counting Kit-8), colorectal cancer cell line; format: cell-based; settings: 1000 nM, cultured seven to 11 days; for inhibition at 1 µM: Homo sapiens, LoVo, 264 h, read-out: % inhibition rate LoVo
Outline: as §3

[8] = target: EZH2 (Homo sapiens, UniProt Q15910); assay: AlphaLISA enzyme activity inhibition, EZH2; format: biochemical; settings: for inhibition at 0.01 µM: 10nM test substance
EZH2, sequence (Q15910 whole entry, species assumed): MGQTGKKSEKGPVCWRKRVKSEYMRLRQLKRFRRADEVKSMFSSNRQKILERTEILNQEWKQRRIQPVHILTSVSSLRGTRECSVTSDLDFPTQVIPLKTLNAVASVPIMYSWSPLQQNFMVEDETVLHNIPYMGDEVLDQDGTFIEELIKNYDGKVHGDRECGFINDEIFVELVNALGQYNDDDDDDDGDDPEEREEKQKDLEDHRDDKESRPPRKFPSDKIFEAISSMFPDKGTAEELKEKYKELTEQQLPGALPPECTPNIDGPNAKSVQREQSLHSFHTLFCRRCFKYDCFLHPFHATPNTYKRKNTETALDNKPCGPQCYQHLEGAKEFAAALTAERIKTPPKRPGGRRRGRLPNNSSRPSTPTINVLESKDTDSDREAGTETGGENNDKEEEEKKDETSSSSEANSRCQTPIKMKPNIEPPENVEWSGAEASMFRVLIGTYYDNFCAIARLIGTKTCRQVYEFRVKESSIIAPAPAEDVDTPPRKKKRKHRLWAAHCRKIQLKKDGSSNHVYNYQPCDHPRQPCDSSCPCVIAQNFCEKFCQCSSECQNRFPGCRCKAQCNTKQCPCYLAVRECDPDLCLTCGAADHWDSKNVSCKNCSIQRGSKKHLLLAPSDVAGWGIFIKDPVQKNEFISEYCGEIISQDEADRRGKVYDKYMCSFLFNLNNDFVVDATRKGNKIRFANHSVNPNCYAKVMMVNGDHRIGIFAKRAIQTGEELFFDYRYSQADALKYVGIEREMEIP
EZH2, sequence (O75530 whole entry partner, species assumed): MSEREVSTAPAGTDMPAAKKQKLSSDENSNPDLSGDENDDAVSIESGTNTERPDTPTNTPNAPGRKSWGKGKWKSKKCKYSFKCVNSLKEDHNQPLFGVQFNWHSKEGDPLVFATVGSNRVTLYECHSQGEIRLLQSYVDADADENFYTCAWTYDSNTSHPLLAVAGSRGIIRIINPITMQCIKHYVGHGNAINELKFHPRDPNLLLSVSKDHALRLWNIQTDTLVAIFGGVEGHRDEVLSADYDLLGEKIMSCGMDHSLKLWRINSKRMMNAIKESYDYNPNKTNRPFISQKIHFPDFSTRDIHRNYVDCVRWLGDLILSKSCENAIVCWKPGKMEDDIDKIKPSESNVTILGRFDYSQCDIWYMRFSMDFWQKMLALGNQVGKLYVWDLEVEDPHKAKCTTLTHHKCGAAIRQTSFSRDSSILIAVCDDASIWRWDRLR
EZH2, sequence (Q15022 whole entry partner, species assumed): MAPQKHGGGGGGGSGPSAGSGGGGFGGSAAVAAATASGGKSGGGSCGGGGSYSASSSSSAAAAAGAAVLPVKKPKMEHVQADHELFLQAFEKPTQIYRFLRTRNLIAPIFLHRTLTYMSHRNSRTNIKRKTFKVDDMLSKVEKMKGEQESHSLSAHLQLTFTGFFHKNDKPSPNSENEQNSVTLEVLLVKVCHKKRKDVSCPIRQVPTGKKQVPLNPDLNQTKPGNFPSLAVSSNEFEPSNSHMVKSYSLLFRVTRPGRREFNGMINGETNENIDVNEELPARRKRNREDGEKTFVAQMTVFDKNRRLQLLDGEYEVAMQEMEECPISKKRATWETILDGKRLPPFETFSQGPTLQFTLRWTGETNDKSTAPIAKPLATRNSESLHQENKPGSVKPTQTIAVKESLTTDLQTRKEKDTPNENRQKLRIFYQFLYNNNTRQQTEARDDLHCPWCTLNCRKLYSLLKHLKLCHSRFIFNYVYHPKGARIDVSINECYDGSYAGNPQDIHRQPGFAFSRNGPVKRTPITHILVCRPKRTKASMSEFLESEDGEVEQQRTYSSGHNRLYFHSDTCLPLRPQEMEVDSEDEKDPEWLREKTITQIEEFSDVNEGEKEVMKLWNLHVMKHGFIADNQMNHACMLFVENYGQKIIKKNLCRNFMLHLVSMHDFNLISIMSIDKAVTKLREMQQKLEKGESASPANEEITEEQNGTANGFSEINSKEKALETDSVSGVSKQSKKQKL
Outline: as §1

EZH1, sequence (Q92800 whole entry, species assumed): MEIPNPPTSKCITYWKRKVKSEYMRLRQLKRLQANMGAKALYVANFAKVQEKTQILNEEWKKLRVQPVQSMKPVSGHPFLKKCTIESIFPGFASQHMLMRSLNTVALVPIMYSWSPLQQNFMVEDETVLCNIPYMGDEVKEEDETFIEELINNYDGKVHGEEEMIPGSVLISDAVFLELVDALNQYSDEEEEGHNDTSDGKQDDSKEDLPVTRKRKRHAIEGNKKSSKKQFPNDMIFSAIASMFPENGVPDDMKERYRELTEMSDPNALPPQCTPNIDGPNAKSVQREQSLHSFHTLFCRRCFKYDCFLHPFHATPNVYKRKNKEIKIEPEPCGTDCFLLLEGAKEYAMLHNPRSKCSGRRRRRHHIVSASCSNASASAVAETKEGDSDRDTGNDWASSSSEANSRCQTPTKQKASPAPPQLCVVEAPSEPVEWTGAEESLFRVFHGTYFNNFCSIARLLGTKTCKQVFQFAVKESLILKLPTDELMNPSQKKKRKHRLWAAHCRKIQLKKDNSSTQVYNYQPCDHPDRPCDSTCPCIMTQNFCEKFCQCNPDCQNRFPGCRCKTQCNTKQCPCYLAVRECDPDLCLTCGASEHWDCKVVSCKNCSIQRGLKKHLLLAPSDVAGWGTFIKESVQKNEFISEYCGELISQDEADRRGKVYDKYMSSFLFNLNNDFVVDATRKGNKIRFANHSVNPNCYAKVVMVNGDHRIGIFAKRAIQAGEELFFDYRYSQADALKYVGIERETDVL
EZH1, sequence (O75530 whole entry partner, species assumed): as the sequence (O75530 whole entry partner, species assumed) above
EZH1, sequence (Q15022 whole entry partner, species assumed): as the sequence (Q15022 whole entry partner, species assumed) above

| inhibition at 0.005 µM ([1]; 5nM test substance) | inhibition at 0.01 µM ([1]; 10nM test substance) | inhibition at 0.005 µM ([8]; 5nM test substance) | inhibition at 0.01 µM [8] | Enzyme inhibition % EZH1 ([1]; 5nM test substance, 0.005 µM) | Enzyme inhibition % EZH2 ([8]; 5nM test substance, 0.005 µM) | Enzyme inhibition % EZH1 ([1]; 10nM test substance, 0.01 µM) | SMILES | inhibition at 1 µM [2] | inhibition at 1 µM [3] | inhibition at 1 µM [4] | inhibition at 1 µM [5] | inhibition at 1 µM [6] | inhibition at 1 µM [7] | % inhibition rate MKN -45 [2] | % inhibition rate SW-13 [3] | % inhibition rate MIA-Paca2 [4] | % inhibition rate G401 [5] | % inhibition rate NCI-H129 9 [6] | % inhibition rate LoVo [7] | % inhibition rate LoVo ([7]; 1 µM) |
| --- | --- | --- | --- | --- | --- | --- | --- | --- | --- | --- | --- | --- | --- | --- | --- | --- | --- | --- | --- | --- |
| 24.3% | 40.7% | 58.5% | 97% |  |  |  | CSc1cc(C)[nH]c(=O)c1CNC(=O)c1cc(-c2ccc(N3C[C@@H](C)O[C@@H](C)C3)nc2)c2c(c1C)OC(C)([C@H]1CC[C@H](N(C)CCc3ccccc3)CC1)O2 (stereo partly drawn) [Compound 112, 7-(6-((2S,6R)-2,6-dimethylmorpholino)pyridin-3-yl)-2,4-dimethyl-2-(trans-4-(methyl(phenethyl)amino)cyclohexyl)-N-((6-methyl-4-(methylthio)-2-oxo-1,2-dihydropyridin-3-yl)methyl)benzo[d][1,3]dioxole-5-carboxamide] | 30 to 70% | 30 to 70% | ≤ 30% | ≥ 70% | ≤ 30% | ≥ 70% |  |  |  |  |  |  |  |
|  |  |  |  | 20.4% | 4.3% |  | CSc1cc(C)[nH]c(=O)c1CNC(=O)c1cc(-c2ccc(N3C[C@@H](C)O[C@@H](C)C3)nc2)c2c(c1C)OC(C)([C@H]1CC[C@H](N(C)CC(F)(F)F)CC1)O2 (single isomer, unassigned) [Compound 108] |  |  |  |  |  |  | + (+: ≤30%) | + (+: ≤30%) | + (+: ≤30%) | + (+: ≤30%) | + (+: ≤30%) | +++ (+++: ≥70%) |  |
| 78.3% | 91.6% | 98.5% | 99.6% |  |  |  | CSc1cc(C)[nH]c(=O)c1CNC(=O)c1cc(-c2ccc(N3C[C@@H](C)O[C@@H](C)C3)nc2)c2c(c1C)OC(C)(C1CCN(C3CCCCC3)CC1)O2 (single isomer, unassigned) [Compound 53] | ≤ 30% | 30 to 70% | ≤ 30% |  | 30 to 70% |  |  |  |  | +++ (+++: ≥70%) |  |  | +++ (+++: ≥70%) |
|  |  | 97.1% | 99.5% | 71.9% |  | 87.4% | CCN(C)c1ccc(-c2cc(C(=O)NCc3c(SC)cc(C)[nH]c3=O)c(C)c3c2OC(C)(C2CCN(CC(F)(F)F)CC2)O3)cn1 (single isomer, unassigned) [Compound 79, 7-(2-(ethyl(methyl)amino)pyridin-5-yl)-2,4-dimethyl-N-((6-methyl-4-(methylthio)-2-oxo-1,2-dihydropyridin-3-yl)methyl)-2-(1-(2,2,2-trifluoroethyl)piperidin-4-yl)benzo[d][1,3]dioxole-5-carboxamide] | 30 to 70% | 30 to 70% | ≤ 30% |  | 30 to 70% | ≥ 70% |  |  |  | +++ (+++: ≥70%) |  |  |  |
| 69% |  | 92.4% |  |  |  |  | CSc1cc(C)[nH]c(=O)c1CNC(=O)c1cc(-c2ccc(N3CC(C)CC(C)C3)nc2)c2c(c1C)OC(C)([C@H]1CC[C@H](N(C)C)CC1)O2 (relative stereo) [Compound 16, 2-(trans-4-(dimethylamino)cyclohexyl)-7-(6-(3,5-dimethylpiperidin-1-yl)pyridin-3-yl)-2,4-dimethyl-N-((6-methyl-4-(methylthio)-2-oxo-1,2-dihydropyridin-3-yl)methyl)benzo[d][1,3]dioxole-5-carboxamide] | 30 to 70% | ≥ 70% | ≤ 30% | 30 to 70% | ≤ 30% | ≥ 70% |  |  |  |  |  |  |  |
| 69.1% |  | 96.8% |  |  |  |  | COC(CN1CCC(C2(C)Oc3c(-c4ccc(N5C[C@@H](C)O[C@@H](C)C5)nc4)cc(C(=O)NCc4c(SC)cc(C)[nH]c4=O)c(C)c3O2)CC1)OC (stereo partly drawn) [Compound 41, 2-(1-(2,2-dimethoxyethyl)piperidin-4-yl)-7-(6-((2S,6R)-2,6-dimethylmorpholino)pyridin-3-yl)-2,4-dimethyl-N-((6-methyl-4-(methylthio)-2-oxo-1,2-dihydropyridin-3-yl)methyl)benzo[d][1,3]dioxole-5-carboxamide] | ≤ 30% | ≤ 30% | ≤ 30% | ≥ 70% | ≤ 30% | ≥ 70% |  |  |  |  |  |  |  |
| 25.3% | 28.5% | 65.1% | 82% |  |  |  | CSc1cc(C)[nH]c(=O)c1CNC(=O)c1cc(-c2ccc3c(c2)OCO3)c2c(c1C)OC(C)(C1CCN(CC(F)(F)F)CC1)O2 (centres unmarked) [Compound 94, 2,7-dimethyl-N-((6-methyl-4-(methylthio)-2-oxo-1,2-dihydropyridin-3-yl)methyl)-2-(1-(2,2,2-trifluoroethyl)piperidin-4-yl)-[4,5'-bibenzo[d][1,3]dioxole]-6-carboxamide] | ≤ 30% | ≤ 30% | ≤ 30% | ≤ 30% | ≤ 30% | ≥ 70% |  |  |  |  |  |  |  |
| 52% | 91.9% | 99.8% | 100% |  |  |  | CSc1cc(C)[nH]c(=O)c1CNC(=O)c1cc(-c2ccc(N3C[C@@H](C)O[C@@H](C)C3)nc2)c2c(c1C)OC(C)([C@H]1CC[C@H](N(C)C(C)C)CC1)O2 (stereo partly drawn) [Compound 110, 7-(6-((2S,6R)-2,6-dimethylmorpholino)pyridin-3-yl)-2-(trans-4-(isopropyl(methyl)amino)cyclohexyl)-2,4-dimethyl-N-((6-methyl-4-(methylthio)-2-oxo-1,2-dihydropyridin-3-yl)methyl)benzo[d][1,3]dioxole-5-carboxamide] | ≤ 30% | 30 to 70% | ≤ 30% | ≥ 70% | ≤ 30% | ≥ 70% |  |  |  |  |  |  |  |
| 38.1% | 46% | 83.2% | 91.1% |  |  |  | CSc1cc(C)[nH]c(=O)c1CNC(=O)c1cc(-c2ccc3c(c2)OCO3)c2c(c1C)OC(C)(C1CCN(CC(F)F)CC1)O2 (centres unmarked) [Compound 95, 2-(1-(2,2-difluoroethyl)piperidin-4-yl)-2,7-dimethyl-N-((6-methyl-4-(methylthio)-2-oxo-1,2-dihydropyridin-3-yl)methyl)-[4,5'-bibenzo[d][1,3]dioxole]-6-carboxamide] | 30 to 70% | ≤ 30% | ≤ 30% | ≥ 70% | ≤ 30% | ≥ 70% |  |  |  |  |  |  |  |
| 24.9% |  | 41.1% |  |  |  |  | CSc1cc(C)[nH]c(=O)c1CNC(=O)c1cc(-c2ccc(N3CCSCC3)nc2)c2c(c1C)OC(C)(C1CCN(CC(F)(F)F)CC1)O2 (centres unmarked) [Compound 34, 2,4-dimethyl-N-((6-methyl-4-(methylthio)-2-oxo-1,2-dihydropyridin-3-yl)methyl)-7-(6-thiomorpholinopyridin-3-yl)-2-(1-(2,2,2-trifluoroethyl)piperidin-4-yl)benzo[d][1,3]dioxole-5-carboxamide] | ≤ 30% | ≤ 30% | ≤ 30% | 30 to 70% | ≤ 30% | ≥ 70% |  |  |  |  |  |  |  |
| 82.9% |  | 98.9% |  |  |  |  | CSc1cc(C)[nH]c(=O)c1CNC(=O)c1cc(-c2ccsc2)c2c(c1C)OC(C)([C@H]1CC[C@H](N(C)C)CC1)O2 (relative stereo) [Compound 11, 2-(trans-4-(dimethylamino)cyclohexyl)-2,4-dimethyl-N-((6-methyl-4-(methylthio)-2-oxo-1,2-dihydropyridin-3-yl)methyl)-7-(thiophen-3-yl)benzo[d][1,3]dioxole-5-carboxamide] | ≤ 30% | 30 to 70% | ≤ 30% | 30 to 70% | 30 to 70% | ≥ 70% |  |  |  |  |  |  |  |
| 30.9% | 17.6% | 52.2% | 48.9% |  |  |  | CCCCN(C)c1ccc(-c2cc(C(=O)NCc3c(SC)cc(C)[nH]c3=O)c(C)c3c2OC(C)(C2CCN(CC(F)(F)F)CC2)O3)cn1 (centres unmarked) [Compound 98, 7-(6-(butyl(methyl)amino)pyridin-3-yl)-2,4-dimethyl-N-((6-methyl-4-(methylthio)-2-oxo-1,2-dihydropyridin-3-yl)methyl)-2-(1-(2,2,2-trifluoroethyl)piperidin-4-yl)benzo[d][1,3]dioxole-5-carboxamide] | 30 to 70% | ≤ 30% | ≤ 30% | 30 to 70% | ≤ 30% | ≥ 70% |  |  |  |  |  |  |  |
